One data set is described as follows: physchem. The settings on record: buffer.
Another data set concerns KB cells. As to the kind of experiment: Cellular data: KB cell viability (Cell titer-glo luminescence). Format: cell-based. The following applies: for EC50: folate free RPMI, 2 h compound incubation, wash, additional 70 h; for % Kill (48 h): percent cell kill at 48 h. As to the method: KB cells in culture were seeded in white clear bottom 96-well tissue culture plate at a density of 5,000 cells per well in a folate free RPMI media with 10% FBS a day prior to compound addition. Cells were counted visually with a hemocytometer and diluted accordingly to obtain the desired density. Cells were allowed to incubate for 24 hours in a humidified CO2 atmosphere in an incubator at 37° C. The spent media was aspirated and replenished with 100 μL of fresh media containing a 3-fold serial dilution of compound with concentrations ranging from 0.3 to 2000 nM and with a final DMSO concentration of 0.1%. Blank wells without compound were also treated with media containing 0.1% DMSO. […] […] At the end of 70 h, the spent media was removed and cells were washed once with fresh media and then suspended 100 μL of PBS. 100 μL of constituted Cell titer-glo reagent was added to each well and luminescence was recorded with a VICTOR plate reader according to manufacturers' protocol.
For orientation: In ATP-based viability assays light output follows the ATP content of the culture.

Data set [1] is described as follows: Hydrolysis studies of silicon-linker constructs and conjugates (HEPES buffer, UPLC/MS).

SMILES strings stand for the structures.

Usually half-life stands for the time in which the quantity being followed falls by half. A high value points to slow loss. The term EC50 denotes the concentration needed to bring the measured effect to its halfway point.

`C[Si](C)(CCCC(=O)O)O[Si](C)(C)c1ccccc1` [Example 1, 4-(1,1,3,3-Tetramethyl-3-phenyldisiloxanyl)butanoic acid]: the half-life is 1.67 h in “physchem” (pH 5) and > 24 h in the data set “physchem” (pH 7.4).

`CCOC(=O)CCC[Si](C)(C)O[Si](C)(C)CCCC(=O)O` [Example 7, 4-(3-(4-ethoxy-4-oxobutyl)-1,1,3,3-tetramethyldisiloxanyl)butanoic acid]: the half-life was 0.333 h in “physchem” (pH 5) and > 24 h in the data set “physchem” (pH 7.4).

`C[Si](C)(C)O[Si](C)(C)CSc1ncccn1` [Example 8, 2-(((1,1,3,3,3-Pentamethyldisiloxanyl)methyl)thio)pyrimidine]: the half-life in “physchem” (pH 5) worked out at 0.0833 h; in the data set “physchem” (pH 7.4), 24 h.

As to `Cc1cc(C)nc(SC[Si](C)(C)O[Si](C)(C)C)n1` [Example 9, 4,6-Dimethyl-2-(((1,1,3,3,3-pentamethyldisiloxanyl)methyl)thio)pyrimidine], the half-life in “physchem” (pH 5) came to 0.417 h; in the data set “physchem” (pH 7.4) it was 40 h.

As for `C[Si](C)(C)O[Si](C)(C)CS(=O)(=O)c1ncccn1` [Example 10, 2-(((1,1,3,3,3-Pentamethyldisiloxanyl)methyl)sulfonyl)pyrimidine], the half-life in “physchem” (pH 5) and in the data set “physchem” (pH 7.4) was 0.583 h in each case.

Take `C[Si](C)(COc1ncccn1)O[Si](C)(C)COc1ncccn1` [Example 15, 1,1,3,3-Tetramethyl-1,3-bis((pyrimidin-2-yloxy)methyl)disiloxane]: the half-life in the data set “physchem” (pH 5) is 0.417 h; in “physchem” (pH 7.4), > 4 h.

Consider `Cc1ccnc(SC[Si](C)(C)O[Si](C)(C)C)n1` [Example 27, 4-Methyl-2-(((1,1,3,3,3-pentamethyldisiloxanyl)methyl)thio)pyrimidine], for which the half-life in “physchem” (pH 5) was 0.2 h; in the data set “physchem” (pH 7.4), > 2 h.

`C[Si](C)(C)O[Si](C)(C)CSc1nccc(C(F)(F)F)n1` [Example 28, 2-(((1,1,3,3,3-pentamethyldisiloxanyl)methyl)thio)-4-(trifluoromethyl)pyrimidine]: in “physchem” (pH 5), the half-life is > 2 h.

The compound `C[Si](C)(C)O[Si](C)(C)CSc1cnccn1` [Example 31, 2-(((1,1,3,3,3-pentamethyldisiloxanyl)methyl)thio)pyrazine] registered a half-life in “physchem” (pH 5) of 0.5 h.

`CC(C)C(=O)NCCC[Si](C)(C)O[Si](C)(C)CSc1ncccn1` [Example 34, N-(3-(1,1,3,3-Tetramethyl-3-((pyrimidin-2-ylthio)methyl)disiloxanyl)propyl) isobutyramide]: the results for the half-life in the data set “physchem” (pH 5) and in the data set “physchem” (pH 7.4) were 0.0333 h and > 2 h, respectively.

Take `CC(=O)NCCC[Si](C)(C)O[Si](C)(C)CSc1ncc(Cn2cc(-c3ccccc3)nn2)cn1` [Example 62, N-(3-(1,1,3,3-tetramethyl-3-(((5-((4-phenyl-1H-1,2,3-triazol-1-yl)methyl)pyrimidin-2-yl)thio)methyl)disiloxanyl)propyl)acetamide]: the half-life was 0.333 h in the data set “physchem” (pH 5) and > 3 h in “physchem” (pH 7.4).

For `CC(=O)NCCC[Si](C)(C)O[Si](C)(C)CSc1ncc(COCCOCCOCCn2cc(COCC(COCc3cn(CCOCCOCCOCc4cnc(SC[Si](C)(C)O[Si](C)(C)CCCNC(C)=O)nc4)nn3)(COCc3cn(CCOCCOCCOCc4cnc(SC[Si](C)(C)O[Si](C)(C)CCCNC(C)=O)nc4)nn3)NC(C)=O)nn2)cn1` [Example 63], the half-life in “physchem” (pH 5) is 1 h; in the data set “physchem” (pH 7.4) it was > 18 h.

As to `CC(=O)NCCC[Si](C)(C)O[Si](C)(C)CCCn1cc(-c2ccccc2)nn1` [Example 69, N-(3-(1,1,3,3-tetramethyl-3-(3-(4-phenyl-1H-1,2,3-triazol-1-yl)propyl)disiloxanyl)propyl)acetamide], the half-life is 4 h in the data set “physchem” (pH 5) and > 6 h in the data set “physchem” (pH 7.4).

For `CC(=O)NCCC[Si](C)(C)O[Si](C)(C)CSc1ncc(Cn2cc(-c3ccc(COCC(COCc4ccc(-c5cn(Cc6cnc(SC[Si](C)(C)O[Si](C)(C)CCCNC(C)=O)nc6)nn5)cc4)(COCc4ccc(-c5cn(Cc6cnc(SC[Si](C)(C)O[Si](C)(C)CCCNC(C)=O)nc6)nn5)cc4)NC(=O)OC(C)(C)C)cc3)nn2)cn1` [Example 73, tert-butyl(1,3-bis((4-(1-((2-(((3-(3-acetamidopropyl)-1,1,3,3-tetramethyldisiloxanyl)methyl)thio)pyrimidin-5-yl)methyl)-1H-1,2,3-triazol-4-yl)benzyl)oxy)-2-(((4-(1-((2-(((3-(3-acetamidopropyl)-1,1,3,3-tetramethyldisiloxanyl)methyl)thio)pyrimidin-5-yl)methyl)-1H-1,2,3-triazol-4-yl)benzyl)oxy)methyl)propan-2-yl)carbamate], the half-life in “physchem” (pH 5) was 18 h; in the data set “physchem” (pH 7.4) it was > 18 h.

Regarding `CC[C@]1(O)C[C@@H]2C[N@@](CCc3c([nH]c4ccccc34)[C@@](C(=O)OC)(c3cc4c(cc3OC)N(C)[C@H]3[C@@](O)(C(=O)NCCC[Si](C)(C)O[Si](C)(C)CSc5ncc(Cn6cc(COCCOCCOCCOCCOCCOCCNC(=O)CC[C@H](NC(=O)c7ccc(NCc8cnc9nc(N)[nH]c(=O)c9n8)cc7)C(=O)O)nn6)cn5)[C@H](O)[C@]5(CC)C=CCN6CC[C@]43[C@@H]65)C2)C1` [Example 80], in the data set on KB cells, the EC50 was ~265 nM and the “% Kill (48 h)” value amounted to 84%. Moreover, in data set [1] (pH 5), the half-life is 0.75 h. Further, the half-life in data set [1] (pH 7.4) was 24 h.

Take `CC[C@]1(O)C[C@@H]2CN(CCc3c([nH]c4ccccc34)[C@@](C(=O)OC)(c3cc4c(cc3OC)N(C)[C@H]3[C@@](O)(C(=O)NCCC[Si](C)(C)O[Si](C)(C)CSc5ncc(Cn6cc(C[C@H](NC(=O)[C@H](CC(=O)O)NC(=O)[C@H](CC(=O)O)NC(=O)[C@H](CCCNC(=N)N)NC(=O)[C@H](CC(=O)O)NC(=O)CC[C@H](NC(=O)c7ccc(NCc8cnc9nc(N)[nH]c(=O)c9n8)cc7)C(=O)O)C(=O)O)nn6)cn5)[C@H](O)[C@]5(CC)C=CCN6CC[C@]43[C@@H]65)C2)C1` [Example 81]: in the data set with KB cells, the “% Kill (48 h)” value came to 86%. In addition, the half-life in data set [1] (pH 5) came out at 0.583 h; in data set [1] (pH 7.4) it was 24 h.

With `CC[C@]1(O)C[C@H]2CN(CCc3c([nH]c4ccccc34)[C@@](C(=O)OC)(c3cc4c(cc3OC)N(C)[C@H]3[C@@](O)(C(=O)NCCC[Si](C)(C)O[Si](C)(C)CSc5ncc(COCCOCCOCCn6cc(COCC(COCc7cn(CCOCCOCCOCc8cnc(SC[Si](C)(C)O[Si](C)(C)CCCNC(=O)[C@@]9(O)[C@H](O)[C@]%10(CC)C=CCN%11CC[C@@]%12(c%13cc([C@@]%14(C(=O)OC)C[C@@H]%15CN(CCc%16c%14[nH]c%14ccccc%16%14)C[C@](O)(CC)C%15)c(OC)cc%13N(C)[C@@H]9%12)[C@@H]%11%10)nc8)nn7)(COCc7cn(CCOCCOCCOCc8cnc(SC[Si](C)(C)O[Si](C)(C)CCCNC(=O)[C@@]9(O)[C@H](O)[C@]%10(CC)C=CCN%11CC[C@@]%12(c%13cc([C@@]%14(C(=O)OC)C[C@@H]%15CN(CCc%16c%14[nH]c%14ccccc%16%14)C[C@](O)(CC)C%15)c(OC)cc%13N(C)[C@@H]9%12)[C@@H]%11%10)nc8)nn7)NC(=O)CCOCCOCCOCCOCCOCCOCCNC(=O)CC[C@H](NC(=O)c7ccc(NCc8cnc9nc(N)[nH]c(=O)c9n8)cc7)C(=O)O)nn6)cn5)[C@H](O)[C@]5(CC)C=CCN6CC[C@]43[C@@H]65)C2)C1` (some centres unmarked) [Example 82], in the data set with KB cells, the EC50 was ~193 nM. In addition, the “% Kill (48 h)” value with KB cells is listed as 80%. Also, the half-life in data set [1] (pH 5) was 1 h; in data set [1] (pH 7.4) it was > 24 h.

As for `CC[C@]1(O)C[C@H]2CN(CCc3c([nH]c4ccccc34)[C@@](C(=O)OC)(c3cc4c(cc3OC)N(C)[C@H]3[C@@](O)(C(=O)NCCC[Si](C)(C)O[Si](C)(C)CSc5ncc(Cn6cc(COCC(COCc7cn(Cc8cnc(SC[Si](C)(C)O[Si](C)(C)CCCNC(=O)[C@@]9(O)[C@H](O)[C@]%10(CC)C=CCN%11CC[C@@]%12(c%13cc([C@@]%14(C(=O)OC)C[C@@H]%15CN(CCc%16c%14[nH]c%14ccccc%16%14)C[C@](O)(CC)C%15)c(OC)cc%13N(C)[C@@H]9%12)[C@@H]%11%10)nc8)nn7)(COCc7cn(Cc8cnc(SC[Si](C)(C)O[Si](C)(C)CCCNC(=O)[C@@]9(O)[C@H](O)[C@]%10(CC)C=CCN%11CC[C@@]%12(c%13cc([C@@]%14(C(=O)OC)C[C@@H]%15CN(CCc%16c%14[nH]c%14ccccc%16%14)C[C@](O)(CC)C%15)c(OC)cc%13N(C)[C@@H]9%12)[C@@H]%11%10)nc8)nn7)NC(=O)CCOCCOCCOCCOCCOCCOCCNC(=O)CC[C@H](NC(=O)c7ccc(NCc8cnc9nc(N)[nH]c(=O)c9n8)cc7)C(=O)O)nn6)cn5)[C@H](O)[C@]5(CC)C=CCN6CC[C@]43[C@@H]65)C2)C1` (some centres unmarked) [Example 83], the half-life in data set [1] (pH 7.4) is > 24 h.

Values taken from patent US9931407B2, “Silicon based drug conjugates and methods of using same” (BlinkBio, Inc., priority 2015, dated 2018).
